The record followed here is ChEMBL document CHEMBL3232931 (J Med Chem, 2014).

In data set [1] the target is T1, Ubiquitin carboxyl-terminal hydrolase 2 (Homo sapiens, UniProt O75604).
T1 sequence (O75604 whole entry): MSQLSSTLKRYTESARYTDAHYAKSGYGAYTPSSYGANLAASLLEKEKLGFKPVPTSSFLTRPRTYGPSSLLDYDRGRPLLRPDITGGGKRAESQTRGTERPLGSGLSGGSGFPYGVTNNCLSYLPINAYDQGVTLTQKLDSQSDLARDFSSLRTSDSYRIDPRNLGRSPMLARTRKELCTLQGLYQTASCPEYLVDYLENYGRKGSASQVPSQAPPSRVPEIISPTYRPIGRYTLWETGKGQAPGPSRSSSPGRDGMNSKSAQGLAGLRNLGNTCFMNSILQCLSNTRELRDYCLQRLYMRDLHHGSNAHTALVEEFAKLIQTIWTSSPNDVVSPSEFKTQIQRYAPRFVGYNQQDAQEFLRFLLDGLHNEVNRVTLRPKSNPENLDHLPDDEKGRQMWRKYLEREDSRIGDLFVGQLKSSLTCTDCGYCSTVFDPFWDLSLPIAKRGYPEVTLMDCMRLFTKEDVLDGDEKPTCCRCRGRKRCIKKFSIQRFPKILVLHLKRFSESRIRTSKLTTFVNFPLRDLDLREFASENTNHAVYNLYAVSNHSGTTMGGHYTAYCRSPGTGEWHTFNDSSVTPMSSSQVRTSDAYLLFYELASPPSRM
Put plainly: Inhibition of human USP2 using Ub-rhodamine 110 as substrate.

The next data set deals with HEK293. Put plainly: Cytotoxicity against human HEK293 cells assessed as cell viability after 48 hrs by Cell Titer-Glo luminescent assay. In kind it is cell-based. To be noted: hek293, 48 h.
In data set [2] the target is T2, Ubiquitin carboxyl-terminal hydrolase 20 (Homo sapiens, UniProt Q9Y2K6). Put plainly: Inhibition of human USP20 using Ub-rhodamine 110 as substrate at 31 uM.
Data set [3] concerns the target T2, Ubiquitin carboxyl-terminal hydrolase 20. Briefly: Inhibition of human USP20 using Ub-rhodamine 110 as substrate.
The next data set addresses T3, Caspase-3 (Homo sapiens, UniProt P42574).
T3 sequence (P42574 whole entry): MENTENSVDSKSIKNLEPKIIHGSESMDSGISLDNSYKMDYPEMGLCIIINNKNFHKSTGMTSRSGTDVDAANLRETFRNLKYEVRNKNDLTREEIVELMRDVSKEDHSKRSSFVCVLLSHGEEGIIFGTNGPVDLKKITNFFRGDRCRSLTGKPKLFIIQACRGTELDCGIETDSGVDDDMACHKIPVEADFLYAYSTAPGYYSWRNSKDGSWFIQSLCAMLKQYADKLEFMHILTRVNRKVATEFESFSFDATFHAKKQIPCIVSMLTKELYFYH
Briefly: Inhibition of human caspase-3 using fluorogenic peptide as substrate.

The test system of a further data set is SARS-CoV. Briefly: Antiviral activity against SARS coronavirus infected in african green monkey Vero E6 cells assessed as cell viability after 48 hrs by Cell Titer-Glo luminescent assay. The class given is functional, organism-based. The conditions noted are these: Severe acute respiratory syndrome-related coronavirus.
For data set [4], the target named is T4, Ubiquitin carboxyl-terminal hydrolase 2 (Homo sapiens) (UniProt O75604).
T4 sequence (whole entry): T1 sequence (O75604 whole entry)
Put plainly: Inhibition of human USP2 using Ub-rhodamine 110 as substrate at 31 uM.

Data set [5] concerns the target T5, Sentrin-specific protease 8 (Homo sapiens, UniProt Q96LD8).
T5 sequence (Q96LD8 whole entry): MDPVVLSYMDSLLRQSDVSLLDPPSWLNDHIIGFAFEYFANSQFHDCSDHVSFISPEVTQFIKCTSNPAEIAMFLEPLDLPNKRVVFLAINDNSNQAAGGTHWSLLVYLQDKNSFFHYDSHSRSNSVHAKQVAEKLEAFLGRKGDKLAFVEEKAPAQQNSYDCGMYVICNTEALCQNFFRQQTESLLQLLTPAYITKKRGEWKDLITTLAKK
Put plainly: Inhibition of human DEN1 using Nedd8-EKL as substrate.

Data set [6] in a line: Cytotoxicity against african green monkey Vero E6 cells assessed as cell viability after 48 hrs by Cell Titer-Glo luminescent assay. In kind it is cell-based. To be noted: chlorocebus sabaeus.
Data set [7] has as its target T6, Sentrin-specific protease 8 (Homo sapiens) (UniProt Q96LD8).
T6 sequence (whole entry): T5 sequence (Q96LD8 whole entry)
Put plainly: Inhibition of human DEN1 using Nedd8-EKL as substrate at 31 uM.

The subject of the next data set is BL21-DE3. Put plainly: Inhibition of SARS coronavirus papain-like protease (amino acids 1541 to 1855) expressed in Escherichia coli BL21 (DE3) cells assessed as decrease in AMC release using Z-RLRGG-AMC as substrate by serum shift assay based multimode plate reader analysis in presence of 5 to 20% human serum albumin. The conditions noted are these: Severe acute respiratory syndrome-related coronavirus.

The next data set concerns the target T7, Caspase-3 (Homo sapiens) (UniProt P42574).
T7 sequence (whole entry): T3 sequence (P42574 whole entry)
Put plainly: Inhibition of human caspase-3 using fluorogenic peptide as substrate at 31 uM.

Data set [8] addresses Replicase polyprotein 1a (Human coronavirus NL63) (UniProt P0C6U6). Briefly: Inhibition of human coronavirus NL63 PLP2 (amino acids 1565 to 1894) expressed in Escherichia coli BL21 (DE3) cells assessed as reduction of AMC release using Z-RLRGG-AMC as substrate at 100 uM by multimode plate reader analysis.
A short description of data set [9]: Metabolic stability in mouse liver microsomes assessed as parent compound remaining at 1 uM after 15 mins. The class given is ADME. To be noted: read-out: Stability.

The structures appear in SMILES notation. Calls of active or inactive are those of the source. No cut-off for these calls is given here.

Chain of Replicase polyprotein 1a (Human coronavirus NL63) (P0C6U6 whole entry, the tested form may be a part): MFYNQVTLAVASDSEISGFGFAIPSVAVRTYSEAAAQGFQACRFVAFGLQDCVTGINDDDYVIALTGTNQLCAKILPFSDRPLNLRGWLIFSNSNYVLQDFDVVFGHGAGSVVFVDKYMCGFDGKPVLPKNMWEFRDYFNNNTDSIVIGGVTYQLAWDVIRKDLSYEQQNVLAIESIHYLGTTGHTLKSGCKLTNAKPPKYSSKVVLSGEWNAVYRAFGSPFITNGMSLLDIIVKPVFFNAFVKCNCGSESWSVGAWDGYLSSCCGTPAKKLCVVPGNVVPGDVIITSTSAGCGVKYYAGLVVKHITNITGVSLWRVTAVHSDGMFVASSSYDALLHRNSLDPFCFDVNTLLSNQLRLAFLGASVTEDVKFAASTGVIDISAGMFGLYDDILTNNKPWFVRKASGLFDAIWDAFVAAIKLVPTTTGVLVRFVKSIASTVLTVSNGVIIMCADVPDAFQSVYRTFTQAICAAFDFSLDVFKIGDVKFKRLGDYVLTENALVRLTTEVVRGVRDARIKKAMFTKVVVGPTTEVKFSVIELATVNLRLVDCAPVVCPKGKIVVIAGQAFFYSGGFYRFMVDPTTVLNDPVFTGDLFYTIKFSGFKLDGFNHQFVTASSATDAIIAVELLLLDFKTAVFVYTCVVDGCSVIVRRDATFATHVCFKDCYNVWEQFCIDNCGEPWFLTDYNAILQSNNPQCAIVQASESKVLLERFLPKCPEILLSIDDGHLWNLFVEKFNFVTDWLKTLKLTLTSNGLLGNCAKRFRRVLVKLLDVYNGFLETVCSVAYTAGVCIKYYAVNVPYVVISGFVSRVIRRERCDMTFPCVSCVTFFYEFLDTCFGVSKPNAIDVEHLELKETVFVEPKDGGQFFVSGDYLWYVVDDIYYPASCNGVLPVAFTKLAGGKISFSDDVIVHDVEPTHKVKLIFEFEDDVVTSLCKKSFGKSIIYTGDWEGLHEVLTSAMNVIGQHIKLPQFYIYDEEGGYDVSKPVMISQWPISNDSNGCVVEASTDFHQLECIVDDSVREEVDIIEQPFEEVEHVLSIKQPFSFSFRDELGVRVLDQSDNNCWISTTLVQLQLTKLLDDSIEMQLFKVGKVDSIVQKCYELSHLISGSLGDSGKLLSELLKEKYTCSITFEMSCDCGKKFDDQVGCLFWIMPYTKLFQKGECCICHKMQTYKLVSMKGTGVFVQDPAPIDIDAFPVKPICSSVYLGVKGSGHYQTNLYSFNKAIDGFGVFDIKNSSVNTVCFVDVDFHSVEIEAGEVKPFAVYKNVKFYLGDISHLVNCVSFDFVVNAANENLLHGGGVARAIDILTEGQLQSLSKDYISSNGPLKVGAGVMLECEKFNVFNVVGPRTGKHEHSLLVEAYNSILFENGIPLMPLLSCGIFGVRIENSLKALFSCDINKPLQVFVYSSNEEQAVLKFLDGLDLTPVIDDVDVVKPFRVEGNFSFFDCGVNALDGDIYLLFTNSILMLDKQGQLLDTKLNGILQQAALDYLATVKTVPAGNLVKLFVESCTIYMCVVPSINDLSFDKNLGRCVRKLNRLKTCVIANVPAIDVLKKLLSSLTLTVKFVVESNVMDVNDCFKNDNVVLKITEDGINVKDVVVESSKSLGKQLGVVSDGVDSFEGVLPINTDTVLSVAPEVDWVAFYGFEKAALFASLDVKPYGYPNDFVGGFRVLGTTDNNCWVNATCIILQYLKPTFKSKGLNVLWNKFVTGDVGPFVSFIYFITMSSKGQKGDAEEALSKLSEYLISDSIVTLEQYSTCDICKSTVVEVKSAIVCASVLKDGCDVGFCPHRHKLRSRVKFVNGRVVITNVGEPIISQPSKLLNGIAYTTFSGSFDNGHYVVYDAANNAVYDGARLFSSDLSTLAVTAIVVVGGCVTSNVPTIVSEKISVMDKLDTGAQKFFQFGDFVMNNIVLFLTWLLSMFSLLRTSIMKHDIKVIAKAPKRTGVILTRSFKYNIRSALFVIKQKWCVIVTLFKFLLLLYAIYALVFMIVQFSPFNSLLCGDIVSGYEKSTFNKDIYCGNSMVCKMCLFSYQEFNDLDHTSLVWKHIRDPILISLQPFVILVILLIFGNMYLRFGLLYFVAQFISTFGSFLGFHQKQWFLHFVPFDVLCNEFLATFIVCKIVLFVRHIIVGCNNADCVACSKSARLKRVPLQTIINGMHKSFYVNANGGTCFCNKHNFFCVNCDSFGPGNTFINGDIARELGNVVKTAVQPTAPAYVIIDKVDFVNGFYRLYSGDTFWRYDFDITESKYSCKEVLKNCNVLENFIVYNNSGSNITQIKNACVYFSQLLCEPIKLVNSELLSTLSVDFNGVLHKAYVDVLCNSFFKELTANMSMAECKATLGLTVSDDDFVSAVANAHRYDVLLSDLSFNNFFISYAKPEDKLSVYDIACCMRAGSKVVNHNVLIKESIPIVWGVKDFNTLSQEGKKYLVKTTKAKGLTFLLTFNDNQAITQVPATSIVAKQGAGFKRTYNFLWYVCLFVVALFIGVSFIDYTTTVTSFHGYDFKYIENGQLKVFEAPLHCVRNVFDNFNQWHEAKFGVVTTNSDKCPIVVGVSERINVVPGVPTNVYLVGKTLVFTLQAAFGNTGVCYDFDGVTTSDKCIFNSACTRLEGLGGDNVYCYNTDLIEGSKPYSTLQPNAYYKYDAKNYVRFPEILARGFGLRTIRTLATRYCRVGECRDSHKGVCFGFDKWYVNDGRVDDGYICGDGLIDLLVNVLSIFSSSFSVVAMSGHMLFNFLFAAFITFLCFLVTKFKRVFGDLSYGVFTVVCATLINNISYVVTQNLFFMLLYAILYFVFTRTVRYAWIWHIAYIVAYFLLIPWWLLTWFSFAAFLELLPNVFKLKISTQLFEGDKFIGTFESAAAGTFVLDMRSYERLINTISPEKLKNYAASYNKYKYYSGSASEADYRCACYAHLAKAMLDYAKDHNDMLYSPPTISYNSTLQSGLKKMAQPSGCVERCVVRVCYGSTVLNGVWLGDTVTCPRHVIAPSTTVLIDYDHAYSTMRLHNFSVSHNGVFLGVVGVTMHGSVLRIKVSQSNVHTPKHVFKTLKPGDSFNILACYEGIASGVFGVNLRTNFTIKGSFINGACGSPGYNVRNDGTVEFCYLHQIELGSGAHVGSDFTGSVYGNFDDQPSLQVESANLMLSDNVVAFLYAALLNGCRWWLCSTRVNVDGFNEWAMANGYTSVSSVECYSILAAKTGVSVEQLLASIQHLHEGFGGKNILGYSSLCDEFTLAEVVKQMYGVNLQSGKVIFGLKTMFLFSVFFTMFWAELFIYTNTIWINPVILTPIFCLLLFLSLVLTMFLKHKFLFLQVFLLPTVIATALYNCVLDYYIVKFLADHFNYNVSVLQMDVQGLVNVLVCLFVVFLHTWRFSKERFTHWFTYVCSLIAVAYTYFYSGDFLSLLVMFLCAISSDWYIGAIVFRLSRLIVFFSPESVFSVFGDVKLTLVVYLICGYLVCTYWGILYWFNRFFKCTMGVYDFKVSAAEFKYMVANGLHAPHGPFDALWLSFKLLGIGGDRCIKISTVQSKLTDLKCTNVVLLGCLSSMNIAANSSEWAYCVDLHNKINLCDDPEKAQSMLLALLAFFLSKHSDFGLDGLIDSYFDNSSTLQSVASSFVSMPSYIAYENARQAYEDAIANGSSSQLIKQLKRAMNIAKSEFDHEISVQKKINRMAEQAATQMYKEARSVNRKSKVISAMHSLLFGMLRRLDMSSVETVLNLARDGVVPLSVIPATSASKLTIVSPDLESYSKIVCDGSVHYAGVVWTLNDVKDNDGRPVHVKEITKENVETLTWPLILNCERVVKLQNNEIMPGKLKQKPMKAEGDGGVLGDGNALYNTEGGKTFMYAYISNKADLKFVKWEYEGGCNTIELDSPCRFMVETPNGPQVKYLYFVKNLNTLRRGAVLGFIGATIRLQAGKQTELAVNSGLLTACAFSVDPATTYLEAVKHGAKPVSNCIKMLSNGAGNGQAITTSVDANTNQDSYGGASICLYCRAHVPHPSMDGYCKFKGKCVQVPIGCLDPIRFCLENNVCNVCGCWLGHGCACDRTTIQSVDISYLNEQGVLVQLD
T2 sequence (Q9Y2K6 whole entry): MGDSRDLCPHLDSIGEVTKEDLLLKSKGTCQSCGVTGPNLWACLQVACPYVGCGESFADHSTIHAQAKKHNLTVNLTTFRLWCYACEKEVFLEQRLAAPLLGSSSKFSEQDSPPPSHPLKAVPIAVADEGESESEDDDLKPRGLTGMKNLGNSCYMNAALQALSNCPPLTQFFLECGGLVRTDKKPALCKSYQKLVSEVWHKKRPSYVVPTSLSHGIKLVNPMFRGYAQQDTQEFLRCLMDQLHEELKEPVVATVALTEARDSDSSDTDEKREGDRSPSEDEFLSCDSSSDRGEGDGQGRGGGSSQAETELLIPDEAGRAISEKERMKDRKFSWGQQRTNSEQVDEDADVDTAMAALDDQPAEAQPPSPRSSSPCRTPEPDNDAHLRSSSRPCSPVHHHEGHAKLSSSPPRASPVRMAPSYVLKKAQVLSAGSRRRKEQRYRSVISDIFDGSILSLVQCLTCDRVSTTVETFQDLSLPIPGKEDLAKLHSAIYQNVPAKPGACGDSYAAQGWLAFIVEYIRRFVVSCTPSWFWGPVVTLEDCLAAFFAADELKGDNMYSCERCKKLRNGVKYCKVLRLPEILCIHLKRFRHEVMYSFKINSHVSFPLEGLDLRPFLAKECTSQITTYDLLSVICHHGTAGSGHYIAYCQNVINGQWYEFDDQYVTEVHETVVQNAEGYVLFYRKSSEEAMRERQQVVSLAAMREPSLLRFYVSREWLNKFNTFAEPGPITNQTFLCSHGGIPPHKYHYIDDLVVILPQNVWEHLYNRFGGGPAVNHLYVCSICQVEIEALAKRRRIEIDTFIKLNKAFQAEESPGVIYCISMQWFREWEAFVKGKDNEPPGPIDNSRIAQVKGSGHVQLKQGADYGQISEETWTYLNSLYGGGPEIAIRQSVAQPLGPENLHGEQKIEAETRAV

As for `C[C@H](c1cccc2ccccc12)N1CCC(C(=O)NCc2ccc(F)cc2)CC1`, the half-maximal inhibitory concentration (IC50) entry in data set [1] was “Not Active”; in [3] (read-out: IC50) it was > 100 µM; against Caspase-3, “Not Active”; in data set [5] it was “Not Active”. Also, the CC50 in the data set with HEK293 was 73 µM; in data set [6], > 100 µM. In addition, the inhibition in data set [2] is 10%; in data set [4], < 10%; in data set [7] it was < 10%; against Caspase-3 (Homo sapiens), < 10%. Also, the EC50 with SARS-CoV was found to be 11.6 µM. Further, in the data set with BL21-DE3, the inhibition result was “Active”.

On to `C[C@H](c1cccc2ccccc12)N1CCC(C(=O)NCc2cccc(F)c2)CC1`, for which the IC50 result in data set [1] is “Not Active”; in data set [3] (read-out: IC50) it was > 100 µM; at Caspase-3, “Not Active”; in data set [5], “Not Active”. In addition, the CC50 in the data set on HEK293 is 73 µM; in data set [6], > 100 µM. Besides, the inhibition in [2] was 10%; in data set [8], > 30%; in [4], < 10%; in data set [7], < 10%; on Caspase-3 (Homo sapiens) it was < 10%. For the same compound, in the data set on SARS-CoV, the EC50 stood at 5.4 µM. Besides, in [9], the remaining at 0.25 h, 1 µM worked out at 1.2%. The inhibition result with BL21-DE3 is “Active”.

As to `CC(=O)Nc1cccc(CNC(=O)C2CCN([C@H](C)c3cccc4ccccc34)CC2)c1`, the IC50 is > 100 µM in [1] (read-out: IC50), > 100 µM in data set [3] (read-out: IC50), “Not Active” at Caspase-3 and “Not Active” in [5]. The figures for the CC50 (in the data set with HEK293; in data set [6]) were 68 µM and > 100 µM, respectively. Moreover, the inhibition in data set [2] was 10%; in [8], > 30%; in [4], 10%; in data set [7], < 10%; against Caspase-3 (Homo sapiens), < 10%. Besides, the EC50 in the data set on SARS-CoV worked out at 8.3 µM. Besides, the remaining at 0.25 h, 1 µM in data set [9] was determined as 20%. Besides, the inhibition result in the data set with BL21-DE3 was “Active”.

Take `C[C@H](c1cccc2ccccc12)N1CCC(C(=O)NCc2ccc3c(c2)OCO3)CC1`: the IC50 result (in data set [1]; in data set [3]; against Caspase-3; in data set [5]) was “Not Active” in each case. The CC50 (with HEK293; in data set [6]) was > 100 µM in each case. Also, the inhibition is < 10% in data set [2]; > 30% in data set [8]; < 10% in data set [4]; < 10% in data set [7]; < 10% on Caspase-3 (Homo sapiens). The EC50 with SARS-CoV amounted to 12.8 µM. In addition, the remaining at 0.25 h, 1 µM in [9] was determined as 0.2%. For the same compound, in the data set with BL21-DE3, the inhibition result was “Active”.
